In brackets after ≈: the same amount, converted by molar mass. Entries after “also recorded” stand apart in the source; their conditions may differ.
What was measured:
PA ATP synthase = PA ATP synthase (Pseudomonas aeruginosa, UniProt Q9HT15); assay: ATP synthesis assay with PA inverted membrane vesicles; format: biochemical; conditions: for extent of inhibition of ATP synthesis activity at highest concentration: 128 μg/mL compound; for inhibition of PA ATP synthase (in words): PA inverted membrane vesicles
PA [1] = assay: Adjuvant assay with pentamidine, PA growth in liquid culture; format: cell-based, Pseudomonas aeruginosa; conditions: 50 and 100 μM pentamidine, compared to compound alone
[2] = tested on: methicillin susceptible SA (MSSA), S. aureus ATCC 29213; assay: Broth microdilution MIC assay against MSSA; conditions: for MIC: Staphylococcus aureus, ATCC29213|MSSA, read-out: MSSA MIC
[3] = tested on: wild-type PA (WTPA), P. aeruginosa ATCC 9027; assay: Broth microdilution MIC assay against WTPA; conditions: for MIC: Pseudomonas aeruginosa, ATCC9027, read-out: WTPA MIC
PA [4] = conditions: cited from earlier work
[5] = tested on: electron transport chain in PA vesicles; assay: Electron transport chain activity; format: biochemical, Pseudomonas aeruginosa; conditions: 64 μg/mL compound, NADH
[6] = n = 3, >85% reduction in growth at OD 590 nm

Compound | extent of inhibition of ATP synthesis activity at highest concentration (PA ATP synthase) | inhibition of PA ATP synthase (in words) (PA ATP synthase) | reduction of PA growth when co-dosed with pentamidine (in words) (PA [1]) | MIC [2] [µg/mL] | MIC [3] [µg/mL] | further results
COC(=O)[C@H](Cc1c[nH]c2ccccc12)NCc1cc2ccccc2nc1OC [Compound 18, Methyl ((2-Methoxyquinolin-3-yl)methyl)-L-tryptophanate] | complete inhibition | dose-dependent inhibition | statistically significant reduction; also recorded: largest reduction in PA growth of the set | > 128 | > 256 | 
COC(=O)[C@@H](Cc1c[nH]cn1)NCc1cc2ccccc2nc1OC [Compound 23, Methyl ((2-Methoxyquinolin-3-yl)methyl)-D-histidinate] |  |  |  | > 128 | > 128 | 
COC(=O)[C@H](Cc1ccc(O)cc1)NCc1cc2ccccc2nc1SC [Compound 22, Methyl ((2-(Methylthio)quinolin-3-yl)methyl)-L-tyrosinate] | complete inhibition | dose-dependent inhibition; also recorded: active; also recorded: strongest activity | statistically significant reduction | > 128 | > 256 | 
CCOC(=O)C1=C(C)NC(=O)NC1c1cc2ccccc2nc1OC (stereo not shown) [Compound 9, Ethyl 4-(2-Methoxyquinolin-3-yl)-6-methyl-2-oxo-1,2,3,4-tetrahydropyrimidine-5-carboxylate] |  |  |  | > 128 | > 128 | 
COC(=O)[C@@H](CCSC)NCc1cc2ccccc2nc1OC [Compound 16, Methyl ((2-Methoxyquinolin-3-yl)methyl)-D-methioninate] |  |  |  | > 128 | > 128 | 
COC(=O)[C@H](Cc1ccc(O)cc1)NCc1cc2ccccc2nc1OC [Compound 20, Methyl ((2-Methoxyquinolin-3-yl)methyl)-L-tyrosinate] |  |  |  | > 128 | > 128 | 
CSc1nc2ccccc2cc1C=O [Compound 6, 2-(Methylthio)quinoline-3-carbaldehyde] |  |  |  | 64 (≈ 315 µM) |  | 
COC(=O)[C@@H](CCSC)NCc1cc2ccccc2nc1SC [Compound 17, Methyl ((2-(Methylthio)quinolin-3-yl)methyl)-D-methioninate] | not complete | dose-dependent inhibition | statistically significant reduction | 64 (≈ 183 µM) | > 256 | 
(E)-2-(2-((2-Methoxyquinolin-3-yl)methylene)hydrazineyl)-4-phenylthiazole [Compound 13] |  |  |  |  |  | MSSA MIC [2, 6]: >128 µg/mL; WTPA MIC [3, 6]: >128 µg/mL
COC(=O)[C@H](Cc1ccc(O)cc1)NCc1cc2ccccc2nc1OCc1ccccc1 [Compound 21, Methyl ((2-(Benzyloxy)quinolin-3-yl)methyl)-L-tyrosinate] |  | not active |  | > 128 | > 128 | 
COc1nc2ccccc2cc1/C=N/NC(N)=S [Compound 12, (E)-2-((2-Methoxyquinolin-3-yl)methylene)hydrazine-1-carbothioamide] |  |  |  | > 128 | > 128 | activity against PA (in words) (PA [4]; compared with 11): weaker activity
COC(=O)[C@H](Cc1c[nH]c2ccccc12)NCc1cc2ccccc2nc1SC [Compound 19, Methyl ((2-(Methylthio)quinolin-3-yl)methyl)-L-tryptophanate] | not complete | dose-dependent inhibition | statistically significant reduction | > 128 | > 256 | 
COc1nc2ccccc2cc1/C=N/N=C/c1cc2ccccc2nc1OC [Compound 11, (1E,2E)-1,2-Bis((2-methoxyquinolin-3-yl)methylene)hydrazine] |  |  |  | > 128 | > 128 | MIC (PA [4]; PA): 80 µg/mL (≈ 216 µM)
COc1nc2ccccc2cc1/C=N/NC(=O)c1ccccc1 [Compound 10, (E)-N′-((2-Methoxyquinolin-3-yl)methylene)benzohydrazide] |  | dose-dependent inhibition |  | > 128 | > 128 | IC50 (PA ATP synthase): 6.55 to 55.7 µM; H+ gradient formation by the electron transport chain [5]: significant inhibition
COC(=O)[C@H](C)NCc1cc2ccccc2nc1OC [Compound 14, Methyl ((2-Methoxyquinolin-3-yl)methyl)-L-alaninate] |  |  |  | > 128 | > 128 | 
COC(=O)[C@@H](NCc1cc2ccccc2nc1OCc1ccccc1)C(C)C [Compound 15, Methyl ((2-(Benzyloxy)quinolin-3-yl)methyl)-L-valinate] | not complete | dose-dependent inhibition; also recorded: active | no significant reduction in growth | > 128 | > 256 | 

— publication PMC9386795 (ACS Omega, 2022)
